From article PMC7146544, “Dual Plasmepsin-Targeting Antimalarial Agents Disrupt Multiple Stages of the Malaria Parasite Life Cycle” (Cell Host & Microbe, 2020)
Where “and” joins values, the source holds several entries; their conditions need not be identical. Equal values may be shown once. Read-outs that look alike come from different tables or passages of the source.

Assays:
[1] = system: WM5 and 4 resistant P. falciparum; experiment: microbe, parasite or virus in culture; format: cell-based, Plasmodium falciparum
Method: (§1) After 72 h incubation at 37°C each well was fixed at room temperature for 30 min with 50 μL of 0.25% glutaraldehyde (ProSciTech) diluted in PBS. Following centrifugation at 1200 rpm for 1 min, supernatants were discarded and parasites were stained with 50 μL of 5X SYBR Green (Invitrogen) diluted in PBS. 50,000 cells were counted by flow cytometry using a Cell Lab Quanta SC – MPL Flow Cytometer (Beckman Coulter) ([Bacon et al., 2007]). Growth was expressed as a percentage of the parasitemia obtained using a vehicle control. All samples were tested in triplicate. EC50 values were determined using GraphPad Prism.
The parent and resistant lines were then cloned by limiting dilution, the EC50 for each line was determined and genomic DNA was purified from clonal parasites (QIAGEN Blood and Tissue Kit).

[2] = biological target: T1, PMX (Plasmodium falciparum, UniProt Q8IAS0); format: binding, P. falciparum; conditions: CETSA
T1 construct: endogenous in cells
Method: Lysate CETSA experiments were conducted essentially as described ([Dziekan et al., 2019]). Samples for CETSA studies were prepared using highly synchronous schizont stage P. falciparum 3D7-PMIX_HA and 3D7-PMX_HA parasites. […] After 2–4 h incubation, mature schizonts were washed once with PBS and pelleted infected red blood cells were lysed in 20 volumes of 0.15% (w/v) saponin in PBS and incubated on ice for 20 min. Parasites were washed 3 times in ice-cold PBS and the final pellet was resuspended in 10 volumes of lysis buffer (0.4% NP-40 (Roche) / PBS) and lysed by three freezing (dry ice/ethanol bath) - thawing cycles. The lysates were cleared by centrifugation at 16,000 g for 30 min and the supernatant containing soluble parasite proteins kept at −80°C until use. […] The proteins were electrophoretically transferred to nitrocellulose membrane using a dry-blotting system (iBlot, Thermo Fisher Scientific). After blocking the membrane in 5% non-fat milk in TBST (M-TBST), PMIX_HA and PMX_HA were detected with anti-HA mAb 12CA5 (produced in-house) followed by HRP-conjugated a-mouse IgG Abs (Merck). Blots were developed with ECL Western Blotting Substrate (Thermo Fisher Scientific), and the images were generated and analyzed using ChemiDoc Gel Imaging System and Image Lab Software (Bio-Rad).

[3] = system: P. falciparum strains resistant to chloroquine, mefloquine, artemisinin, and atovaquone; experiment: EC50 for P. falciparum strains resistant to known antimalarials; format: cell-based, Plasmodium falciparum; conditions: Figure S2
Method: as §1

[4] = system: HepG2 cells; experiment: EC50 for HepG2 cells; format: cell-based; conditions: Homo sapiens
[5] = system: P. falciparum schizonts (3D7); experiment: P. falciparum schizont egress inhibition assay; format: cell-based, Plasmodium falciparum; conditions: compared with control
Method: Parasites purified by magnet separation (MACS; Miltenyi Biotec) were eluted into complete RPMI containing 1 nM Compound 1 (C1) to prevent further egress and synchronize egress to within a 5 min window ([Pino et al., 2017]). When schizont preparations were fully mature, the C1 was washed out with warm complete RPMI-HEPES medium and schizonts transferred to a microscopy chamber for live video time lapse (1 frame per 0.5 s) imaging under DIC conditions using a Zeiss Live Cell Axio observer microscope with x63 oil immersion objective and Zen Blue software used for image capture. Videos (Videos S1 and S2) were processed using Fiji (https://www.nature.com/articles/nmeth.2019). Total parasite numbers and egress events were calculated over 5 min window and expressed as average ± SD of 3 replicate experiments. Because the purified late-stage parasites cannot be fully synchronized to egress within the observation time window, only a proportion of the schizonts will egress during the period of observation. Because all treatment groups originated from the same culture (ie those treated with compound and DMSO vehicle control) the developmental stage is consistent between treatments and the difference in egress quantitation can be attributable to the drug treatment.

[6] = biological target: recombinant PMX protein (rPMX) (Plasmodium falciparum, UniProt Q8IAS0); experiment: biochemical
Method: All wells were backfilled to 200 nL DMSO such that it remains constant across the assay plates (1% final). IC50 values were calculated by Dotmatics 5.3 and Spotfire 7.11.1 software using a nonlinear regression four-parameter fit analysis. The equation used is sigmoidal dose response (variable slope), Y = bottom + (top − bottom)/(1+10((logEC50 − X) × Hill Slope)). Compound Ki values were calculated from the IC50s using the Cheng-Prusoff equation, Ki = IC50/(1 + [S]/Km).
All compound potency assays were conducted in 20 μl total volume. For each assay, 10 μl of recombinant enzymes in respective assay buffers (Table) were dispensed into compound containing assay plates using a Multidrop Combi dispenser and allowed to incubate for 15 min. The reactions were started with a further 10 μl addition of FRET peptide substrates and reactions incubated at 37 °C for various times (Table).Samples were excited at 340 nm and fluorescence emission measured at 492 nm using an Envision fluorescence plate reader (Perkin-Elmer).

[7] = system: P. berghei; experiment: Peters' 4-day suppressive test for P. berghei infection in mice; format: in vivo, Plasmodium berghei; conditions: 4 days
Method: For results shown in Figure 1 A male Swiss mice were infected intraperitoneally (IP) with 1 × 10^6 P. berghei ANKA-parasitised red blood cells withdrawn from a previously infected donor mouse. Test compounds were prepared in a vehicle consisting of 10% DMSO/90% Solutol (5% Solutol® HS-15 in 0.9% saline). […] Peripheral blood samples were taken 24 h after administration of the last dose, and parasitemia was measured by microscopic analysis of Giemsa-stained blood smears. Parasitemia values were averages for 6 mice per group and are expressed as percent parasitemia. For results shown in Figure 4A ‘donor’ female Swiss mice were infected intraperitoneally (IP) with blood stage P. berghei parasites constitutively expressing GFP (P. berghei ANKA GFPcon 259cl2 ([Franke-Fayard et al., 2004]). Three days later, groups of 4 ‘acceptor’ Swiss mice were infected intravenously (IV) with 1 × 10^7 parasitised erythrocytes from the ‘donor’ mice. Two h post infection, experimental mice (4 per cohort) were left untreated (control mice) or treated orally on 4 consecutive days with test drugs formulated in 20% DMSO/60% PG/20% water (v/v/v) or chloroquine dissolved in water. […] Peripheral blood samples were taken 12 h after the last treatment, and parasitemia measured by flow cytometry (proportion of GFP-positive cells in 100,000 recorded events using FACSCalibur, BD) and microscopic analysis of Giemsa-stained blood smears. Parasitemia values were averages for 4 mice per group and are expressed as percent parasitemia.

[8] = system: P. falciparum 3D7-PMIX-HA; experiment: EC50 in knock down parasite line 3D7-PMIX-HA; format: cell-based, Plasmodium falciparum; conditions: presence vs absence of 2.5 mM GlcN
[9] = system: P. falciparum merozoites (3D7); experiment: Invasion assay; format: cell-based, Plasmodium falciparum; conditions: 40 nM WM4; 2.5 nM WM382; merozoites released by mechanical rupture
Method: Late-stage parasites (> 40 h post invasion) were enriched by magnet separation (MACS; Miltenyi Biotec) and allowed to develop to fully segmented schizont-stage parasites. To prevent schizont rupture and merozoites release, control parasites were incubated with 1 μM compound 1 (C1). […] Filtrate containing purified merozoites was immediately added to fresh erythrocytes (70%–80% hematocrit), incubated in a shaker (1,100 rpm) at 37°C for 20 min to allow invasion of host cells, and then diluted to 2% hematocrit. After 24 h incubation at 37°C, invasion was evaluated by measuring parasitemia by microscopy (Giemsa-stained thin smears) and flow cytometry (100,000 cells counted with FACSCalibur, BD).

[10] = system: 3D7 parasite cultures; experiment: Time of drug killing; format: cell-based, Plasmodium falciparum; conditions: 80nM WM4, 40nM WM5, 5nM WM382, added to early rings
Method: 3D7 parasite cultures were synchronized using 5% sorbitol (Sigma) twice at 46 h intervals then again when the culture was a mix of late schizonts and early rings. […] The parasitemia of each culture was quantitated every 8 h for 48 h by collecting 50 μL samples for counting by flow cytometry (as previously described). The developmental stage of the parasites was confirmed at each time point by microscopic examination of Giemsa stained thin blood films. Media and compound were replaced at the 32 h time point.

[11] = Plasmodium falciparum, 3D7, read-out: EC50, 3D7-WM4.1, WM4-resistant line 3D7-WM4.1
[12] = Plasmodium falciparum, 3D7, read-out: EC50, 3D7-WM5.1, WM5-resistant line 3D7-WM5.1

recombinant PMX protein (rPMX), sequence (Q8IAS0 222-573): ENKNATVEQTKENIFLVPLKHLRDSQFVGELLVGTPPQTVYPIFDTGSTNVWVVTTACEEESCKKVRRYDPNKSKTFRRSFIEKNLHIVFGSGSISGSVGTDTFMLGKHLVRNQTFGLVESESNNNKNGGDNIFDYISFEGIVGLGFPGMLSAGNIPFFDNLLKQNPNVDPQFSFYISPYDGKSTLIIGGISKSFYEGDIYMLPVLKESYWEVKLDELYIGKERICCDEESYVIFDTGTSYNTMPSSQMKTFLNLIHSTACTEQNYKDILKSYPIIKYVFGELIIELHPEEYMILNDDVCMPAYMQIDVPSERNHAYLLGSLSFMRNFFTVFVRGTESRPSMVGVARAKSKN
T1 sequence (Q8IAS0 222-573): as above

Row | Structure (SMILES) | EC50 [1, 11] [nM] | EC50 ([1]; Plasmodium falciparum, 3D7, read-out: EC50, 3D7-WM4.2, WM4-resistant line 3D7-WM4.2, Figure S1) [nM] | EC50 [1, 12] [nM] | EC50 ([1]; Plasmodium falciparum, 3D7, read-out: EC50, 3D7-WM5.2, WM5-resistant line 3D7-WM5.2, Figure S1) [nM] | EC50 ([1]; Plasmodium falciparum, 3D7, read-out: EC50, 3D7-WM5.3, WM5-resistant line 3D7-WM5.3, Figure S1) [nM] | EC50 ([1]; read-out: EC50, 3D7-WM4.1, WM4-resistant line 3D7-WM4.1) | EC50 ([1]; read-out: EC50, 3D7-WM5.1, WM5-resistant line 3D7-WM5.1) [nM] | effect on thermal stability of PMX [2] | cross-resistance in drug resistant P. falciparum strains [3] | EC50 [4] [nM] | egress of merozoites from the erythrocyte [5] | IC50 [6] [nM] | Ki [6] [nM] | in vivo activity against P. berghei infection ([7]; intraperitoneal, 20 mpk q.d., Swiss mice) | change of EC50 when PMIX expression was decreased [8] | ability of merozoites to invade erythrocytes [9] | stage of arrest of blood-stage development [10] | in vivo efficacy against P. berghei ([7]; oral, 20 mg/kg (mpk) b.i.d.)
1 | CC(NC(=O)c1cccc(C(c2ccccc2)N2C(=N)NC(C)(C(C)C)CC2=O)c1)c1ccccc1 (racemic) [WM4] | 113 ± 2.3 | 140 ± 52.7 | 93.2 ± 2.04 | 142 ± 5.5 | 135 ± 3.8 | 93 nM and 65.9 nM | 115 ± 18.8 | stabilized PMX | no cross-resistance | 14200 ± 2300 | potently inhibited egress of merozoites | 0.81 | 0.5 ± 0.2 | partial efficacy | no significant change | significantly less able to invade | arrested at late schizont stage | –
2 | CCC1(CC)CC(=O)N([C@@H]2CCOc3ccc(C(=O)N[C@H]4CC(C)(C)Oc5ccccc54)cc32)C(=N)N1 [WM382] | 1.88 ± 0.03 | – | 2.04 ± 0.05 | – | – | – | – | significantly more thermostable | no cross-resistance | 24800 ± 2200 | potently inhibited egress of merozoites | 0.06 | 0.035 ± 0.008 | – | significantly more sensitive | unable to invade erythrocytes | arrested at late schizont stage | significantly greater in vivo efficacy than WM4 and WM5
